The assay concerns Escherichia coli. Nature of the assay: Antimicrobial activity test: rate of inhibition of E. coli proliferation (turbidity). The format is cell-based. The settings on record: 16 hours at 37° C. Here is the method: One platinum loop was collected from a stock slant of Escherichia coli, streaked on a standard agar medium (manufactured by Nissui Pharmaceutical Co.) and incubated under aerobic conditions for 16 hours at 37° C., the colonies which grew on the surface of the standard agar medium were collected using a platinum loop, suspended in sterilized physiological saline solution, the turbidity was measured using a spectrophotometer (manufactured by Hitachi Manufacturing Co.) and adjusted to 0.1 (O.D.; 660 nm) and a pre-incubation solution was prepared.
Bactocasitone (manufactured by Difco Laboratory Co.) was dissolved at a concentration of 1% in purified water, the pH was adjusted to 7.0 with 1M sodium hydroxide, the solution was sterilized at 115° C. for 15 minutes and a basal medium (liquid medium) was prepared. […]
The percentages of the rate of inhibition of proliferation are not in weight (same hereinafter).

The values that follow come from US5424396A, “Antimicrobial peptide and antimicrobial agent” (Morinaga Milk Industry Co., Ltd., priority 1991, dated 1995).

In the case of Trp-Gln-Trp-Arg (WQWR) [Sample No. 7], the “inhibitory rate (rate of inhibition of proliferation)” value is, setting by setting: (added quantity 0.5 μM) 0%; (added quantity 1 μM) 21%; (added quantity 2 μM) 68%; (added quantity 5 μM) 83%; (added quantity 10 μM) 95%; (added quantity 20 μM) 100%. The “inhibitory rate (rate of inhibition of proliferation)” value is, setting by setting: (added quantity 60 μM) 100%; (added quantity 100 μM) 100%; (added quantity 200 μM) 100%.
